# Laboratory results reported in patent publication US20230107216A1, “PANTETHEINE DERIVATIVES AND USES THEREOF” (Comet Therapeutics, Inc., priority 2018, published 2023).
# Like-named read-outs stand apart in the source and are kept apart here.
# How the values were obtained:
# [1] = tested on: Methylmalonic Acidemia (MMA) primary fibroblasts Tsi 5224; experiment: Mitochondrial respiration, XFe96 Extracellular Flux Analyzer (OCR/ECAR), MMA fibroblasts Tsi 5224; type: cell-based; conditions: Homo sapiens, Fibroblast, read-out: Increase in Maximal Respiratory Capacity AUC;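 note: relative to vehicle DMSO control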
# Protocol: The effect of the compounds of the present disclosure on mitochondrial respiration was measured with a XFe96 Extracellular Flux Analyzer (Seahorse Bioscience, Agilent Technologies) and Oxygen consumption Rate (OCR) and Extracellular acidification rate (ECAR) determined.
# Cell culture and treatments. Primary adherent fibroblasts were cultured in minimum essential medium (MEM) (Gibco, 25030081) supplemented with 2 mM L-Glutamine (Gibco, 25030081), 15% fetal bovine serum (FBS) (Gibco, 26400044) and 1% penicillin/streptomycin (Gibco, 5140122) at 37° C. and 5% CO2. Cells were collected for either passaging or experiment at ˜70-80% confluence. Cells were obtained by trypsinization and seeded at 20000 cells/well in cell culture microplates (Seahorse Bioscience, 101085-004) and allowed to adhere for 16 hours in culture media.
# By profiling different primary cells and/or optimizing their culture media or environmental components one can select cell lines and/or conditions that are appropriate for the biological or disease model. In the present example, 24 hours prior to OCR and ECAR profiling, media was changed to Dulbecco's Modified Eagle Medium (DMEM, Agilent Seahorse 103575-100) with the appropriate supplements for the different primary cells (10 mM glucose, 2 mM L-glutamine, 1 mM pyruvate, 10% FBS; 1 mM glucose, 2 mM L-glutamine, 1 mM pyruvate, 10% FBS; 10 mM glucose, 10% FBS; 5 mM glucose 10% FBS; 1 mM glucose 10% FBS). Cells used in this example were: Propionic Acidemia (PA) (GM00371, GM03590 Coriell Institute for Medical Research, Tsi 6337, Tsi 4626, Tsi 3618 Trans-Hit Bio), Methylmalonic Acidemia (MMA) (GM01673, Coriell Institute for Medical Research, Tsi 5224 Trans-Hit Bio), Branched chain ketoacid dehydrogenase kinase (BCKDK) (GM00612, GM00649 Coriell Institute for Medical Research), Subnormal activation of pyruvate dehydrogenase complex (PDH) (GM01503 Coriell Institute for Medical Research), Very long-chain acyl-CoA dehydrogenase (VLCAD) (GM17475), Leigh Syndrome (LS) (GM03672, GM13411 Coriell Institute for Medical Research), Pyruvate Carboxylase Deficiency (PC) (GM00444 Coriell Institute for Medical Research), Glutaric Acidemia-I (GA) (GM10653), Friedreich's Ataxia (FXN) (GM04078 Coriell Institute for Medical Research, Huntington's disease (HD) (GM21756 Coriell Institute for Medical Research), Ornithine Transcarbamylase Deficiency (OTC) (GM12756 Coriell Institute for Medical Research), Kearns-Sayre Syndrome (KSS) (GM06225 Coriell Institute for Medical Research).
# One hour before the assay, the cells were washed with freshly prepared unbuffered serum free-Seahorse XF Assay medium (Seahorse Bioscience, North America, USA, 103575-100) with the same supplements as for the previous 24 hour incubation.
# After baseline measurements of OCR, cells were challenged with compounds of the present disclosure at different concentrations (10 to 50 μM) or vehicle (DMSO, 0.1%) and a post-compound baseline was recorded. OCR was measured after sequentially adding to each well 1 μg/ml oligomycin (inhibitor of ATP synthase Sigma-Aldrich, 753531), then maximal OCR was determined with carbonyl cyanide 4-(trifluoromethoxy) phenylhydrazone (FCCP, Sigma-Aldrich, C2920), (uncoupler of oxidative phosphorylation) and 0.5 μM of rotenone (Sigma-Aldrich, R8875) plus antimycin A (Sigma-Aldrich, A8674) (inhibitors of mitochondrial complex I and III) for determination of rotenone-antimycin insensitive respiration together with Hoechst for nuclear staining in situ when normalized to cell counts. After the analysis and nuclear staining, the XFp microplate was transferred to the Cytation 5, and the nuclear images were captured, the individual nuclei were identified and counted by BioTek Gen5 software. Data were expressed as pmol of O2 per minute and normalized by nuclear staining and baselined to pre-compound addition.
# Assay conditions were as stated below.
# Assay specifics on assay conditions are indicated below when readouts were normalized to cell counts. […]
# [2] = tested on: primary fibroblasts (healthy controls and PA, MMA, BCKDK, PDH, VLCAD, LS, PC, GA, VLCFA, KSS, FXN, HD); experiment: Measurement of ROS (H2DCFDA) in primary fibroblasts; type: cell-based, human; conditions: Homo sapiens, procedure Example 812
# Protocol: Primary adherent fibroblasts were cultured in minimum essential medium (MEM) (Gibco, 25030081) supplemented with 2 mM L-Glutamine (Gibco, 25030081), 15% fetal bovine serum (FBS) (Gibco, 26400044) and 1% penicillin/streptomycin (Gibco, 5140122) at 37° C. and 5% CO2. Cells were collected for either passaging or experiment at ˜70-80% confluence. Cells were obtained by trypsinization and seeded in cell culture microplates either white plate (Thermo Fisher Scientific, 152028) for luminescent measurement or black plate (Thermo Fisher Scientific, 165305) for fluorescent based read out for different assays listed below. Cells were obtained by trypsinization and […] were seeded and allowed to adhere for 16-18 hours to have confluency around 70-80% in the cell well with culture media. After 24 hours prior to measurements (37° C., 5% CO2) media was changed to Dulbecco's Modified Eagle Medium (DMEM, Agilent Seahorse cat #103575-100) with the appropriate supplements as stated below.
# Primary fibroblasts assayed were Healthy controls (GM00041, GM05659, GM23974 Coriell Institute for Medical Research), Propionic Acidemia (PA) (GM00371, GM03590 Coriell Institute for Medical Research, Tsi 6337 Trans-Hit Bio), Methylmalonic Acidemia (MMA) (GM01673, Coriell Institute for Medical Research, Tsi 5224, Tsi 4290 Trans-Hit Bio), Branched chain ketoacid dehydrogenase kinase (BCKDK) (GM00612, GM00649 Coriell Institute for Medical Research), Subnormal activation of pyruvate dehydrogenase complex (PDH) (GM01503 Coriell Institute for Medical Research), Very long-chain acyl-CoA dehydrogenase (VLCAD) (GM17475), Leigh Syndrome (LS) (GM03672, GM13411 Coriell Institute for Medical Research), Pyruvate Carboxylase Deficiency (PC) (GM00444 Coriell Institute for Medical Research), Glutaric Acidemia-I (GA), Impaired VLCFA oxidation (VLCFA) (GM13262), Kearns-Sayre Syndrome (KSS) (GM06225 Coriell Institute for Medical Research), Friedreich's Ataxia (FXN), Huntington's disease (HD) (GM21756 Coriell Institute for Medical Research). Next, cells were treated with compounds (10 μM) and ROS H2DCFDA (22 μM) dye for 2 hours in PA, MMA lines and for 24h for the other fibroblast lines. Kinetic read was started immediately with a i3x plate reader (492/527 nm) for 60 minutes.
# A total dead cell count was performed as described in Example 817 and only alive cells were used for analysis.
# [3] = tested on: HepG2 cells; experiment: Mitochondrial membrane potential (MITO-ID MP detection Kit); type: cell-based; conditions: Homo sapiens, 168 h, 7 days
# Protocol: HepG2 cells (ATCC, HB-8065) were cultured (5% CO2 at 37° C.) and plated in Poly-D-Lysine 384-Well plate (Corning, 356663) at a density of 160000 cells/mL in 50 μL/well. Culture and assay media consisted of DMEM (Gibco, 11995-065) supplemented with 1% Penicillin-Streptomycin and 10% FBS (Hyclone, SV30087.03).
# MITO-ID® MP detection Kit (ENZ-51018) was used and manufacturer instructions followed. Cells were allowed to settle for 30 min at room temperature and further incubated overnight (37° C. and 5% CO2) for adherence. Next day, test compounds (50-10 μM) and vehicle DMSO (0.2%) were added at the recommended volumes to the 384-well plate for 7 days without media change using a Tecan compound dispenser. All the solutions and wash buffers were prepared and dispensed according to manufacturer's volumes for a 384-well plate format.
# [4] = tested on: Venular Endothelial cells (HUVEC) (4H system); experiment: BioMAP 4H system (IL-4 and histamine); type: cell-based, human; conditions: procedure of Example 826; for % decrease in Eotaxin-3: 1 uM
# [5] = tested on: monocyte-derived M1 macrophages; experiment: M1 differentiation assay (macrophage TNFα, IL6, IL10 ELISA, FACS); type: cell-based, human; conditions: Homo sapiens, Macrophage
# Protocol: Monocytes were isolated by positive isolation with CD14+ microbeads (Miltenyi, 130-050-201). Monocytes were 99% viable and were 96% purity as analyzed by FACS and CD14+ (BD, 563561). 100,000 monocytes along with compounds at the dose of 10 and 50 μM were allowed to differentiate to macrophages with 10 ng/ml GMCSF (R&D, 15-GM-050/CF) in RPMI complete media (Invitrogen, 22400089) with 15% FBS (Hyclone SV30087.03) and 1% Penicillin-Streptomycin (Gibco, 15140-122). On day 2 and 4 half the media was refreshed with fresh GM-CSF and compounds at 10 and 50 μM dose. On day 6 the macrophages were matured with GMCSF, IFNγ (R&D 285-IF-100/CF) and LPS (Sigma, L6143) in the presence of 10 μM and 50 μM of compounds. After 24h, supernatant was collected for the measurement of TNFα (DKW, 1117202) IL6 (DKW, 1110602), IL10 (DKW, 1110003) by ELISA. Macrophages were detached gently on ice with EDTA (Invitrogen, 15575-038) and analyzed by FACS (BD LSR Fortessa, 853492). Cells were stained for live/dead dye, surface and intracellular markers with fixation/permeabilization solution (BD, 554714) and ALIVE/DEAD™ Fixable Near-IR Dead Cell Stain Kit (BD, L34976), mouse anti human CD86 APC (BD, 555660), mouse anti-human CD163 PE (BD, 556018), mouse anti-human CD68 FITC (BD, 562117) or isotype controls anti-mouse IgG1 κ PE (BD, 559320) and anti-mouse IgG1 κ APC (BD, Anti mouse IgG1 κ APC (BD, 55571). Mature M1 macrophages were defined as CD86+CD68+CD163− and increase in TNFα, IL6, and decrease in IL-10.
# [6] = tested on: Peripheral blood mononuclear cells co-cultured with venular endothelial cells (HUVEC) (LPS system); experiment: BioMAP LPS system; type: cell-based, human; conditions: Homo sapiens, HUVEC, 24 h, 10 uM, procedure of Example 827
# [7] = Fibroblast, BCKD GM00612, Assay Condition A, read-out: Decreased ROS by at least 10%
# [8] = MMA Tsi 5224, assay condition A (10 mM glucose, 2 mM L-glutamine, 1 mM pyruvate, 10% FBS)
structure (smiles),measurement,setting,value
CC(C)(CO)[C@@H](O)C(=O)NCCC(=O)NCCSC(=O)C(O)CO (stereo partly shown) [Compound 399],activation at 10 µM,"[1]; MMA Tsi 5224, assay condition D (1 mM glucose, 10% FBS)",≥ 10%
same,inhibition at 10 µM,[2]; [7],≥ 10%
same,inhibition at 10 µM,"[3]; 10 uM, read-out: % decrease in Mitochondrial Membrane Potential",> 30%
COC(=O)C[C@H](N)C(=O)SCCNC(=O)CCNC(=O)[C@H](O)C(C)(C)CO [Compound 451],% decrease in Eotaxin-3,[4],≥10%
"C/C=C/C(=O)CC(=O)SCCNC(=O)CCNC(=O)[C@H](O)C(C)(C)CO [Compound 36, (2R)-2,4-dihydroxy-3,3-dimethyl-N-[2-[(2-[[(4E)-3-oxohex-4-enoyl]sulfanyl]ethyl)carbamoyl]ethyl]butanamide]",activation at 10 µM,[1]; [8],≥ 10%
same,% decrease in Eotaxin-3,[4],≥10%
CC(=O)NCCCC(=O)OCC(C)(C)[C@@H](O)C(=O)NCCC(=O)NCCSC(=O)CC(=O)NCCc1c[nH]cn1 [Compound 633],% decrease in Eotaxin-3,[4],≥10%
"CC1(C)OC(=O)C(CC(=O)SCCNC(=O)CCNC(=O)[C@H](O)C(C)(C)CO)O1 (stereo partly drawn) [Compound 1238, S-(2-(3-((R)-2,4-dihydroxy-3,3-dimethylbutanamido)propanamido)ethyl) 2-(2,2-dimethyl-5-oxo-1,3-dioxolan-4-yl)ethanethioate]",activation at 10 µM,[1]; [8],≥ 10%
same,inhibition at 10 µM,"[5]; 10 uM, read-out: % decrease in Macrophage TNFα Secretion",≥ 30%
same,activation at 50 µM,"[3]; 50 uM, read-out: % increase in Mitochondrial Membrane Potential",20%
"CCC(=O)C(C)C(=O)SCCNC(=O)CCNC(=O)[C@H](O)C(C)(C)CO (stereo partly drawn) [Compound 1251, S-(2-(3-((R)-2,4-dihydroxy-3,3-dimethylbutanamido)propanamido)ethyl) 2-methyl-3-oxopentanethioate]",inhibition at 50 µM,[5]; read-out: % decrease in Macrophage IL-6 Secretion,≥ 30%
same,inhibition at 50 µM,[5]; read-out: % decrease in Macrophage TNFα Secretion,≥ 30%
same,inhibition at 10 µM,[2]; [7],≥ 10%
same,inhibition at 10 µM,"[2]; Fibroblast, VLCFA GM13262, Assay Condition C, read-out: Decreased ROS by at least 30%",≥ 30%
same,inhibition at 10 µM,"[2]; FXN GM04078, Assay Condition C, read-out: Decreased ROS by at least 10%",≥ 10%
same,inhibition at 10 µM,"[2]; FXN GM04078, Assay Condition C, read-out: Decreased ROS by at least 30%",≥ 30%
same,inhibition at 50 µM,"[3]; 50 uM, read-out: % decrease in Mitochondrial Membrane Potential",> 30%
CC(C)(CO)[C@@H](O)C(=O)NCCC(=O)NCCS [Prep Ex 5],inhibition at 10 µM,"[4]; Homo sapiens, HUVEC, 24 h, 10 uM, read-out: % decrease in E-Selectin",≥ 20%
same,inhibition at 10 µM,[6]; read-out: % decrease in IL-1α,≥ 20%
same,inhibition at 10 µM,[6]; read-out: % decrease in IL-8,≥ 10%
same,inhibition at 10 µM,[6]; read-out: % decrease in TissueFactor,≥ 10%
same,activation at 10 µM,[6]; read-out: % increase in sTNFα,≥ 20%
